Experimental data from article PMC7430049 (Journal of medicinal chemistry, 2019).

How the values were obtained:
human recombinant G9a [1] = biological target: T1, human recombinant G9a (Homo sapiens, UniProt Q96KQ7); test: G9a inhibition, peptide-based AlphaLISA assay; type: biochemical; conditions: for fold reduction of G9a inhibitory activity compared to 12a: relative to 12a, from Table 1 IC50; for Hill slope of the concentration–response inhibition curve of G9a: AlphaLISA, four-parameter fit
T1 sequence (Q96KQ7 1-1210): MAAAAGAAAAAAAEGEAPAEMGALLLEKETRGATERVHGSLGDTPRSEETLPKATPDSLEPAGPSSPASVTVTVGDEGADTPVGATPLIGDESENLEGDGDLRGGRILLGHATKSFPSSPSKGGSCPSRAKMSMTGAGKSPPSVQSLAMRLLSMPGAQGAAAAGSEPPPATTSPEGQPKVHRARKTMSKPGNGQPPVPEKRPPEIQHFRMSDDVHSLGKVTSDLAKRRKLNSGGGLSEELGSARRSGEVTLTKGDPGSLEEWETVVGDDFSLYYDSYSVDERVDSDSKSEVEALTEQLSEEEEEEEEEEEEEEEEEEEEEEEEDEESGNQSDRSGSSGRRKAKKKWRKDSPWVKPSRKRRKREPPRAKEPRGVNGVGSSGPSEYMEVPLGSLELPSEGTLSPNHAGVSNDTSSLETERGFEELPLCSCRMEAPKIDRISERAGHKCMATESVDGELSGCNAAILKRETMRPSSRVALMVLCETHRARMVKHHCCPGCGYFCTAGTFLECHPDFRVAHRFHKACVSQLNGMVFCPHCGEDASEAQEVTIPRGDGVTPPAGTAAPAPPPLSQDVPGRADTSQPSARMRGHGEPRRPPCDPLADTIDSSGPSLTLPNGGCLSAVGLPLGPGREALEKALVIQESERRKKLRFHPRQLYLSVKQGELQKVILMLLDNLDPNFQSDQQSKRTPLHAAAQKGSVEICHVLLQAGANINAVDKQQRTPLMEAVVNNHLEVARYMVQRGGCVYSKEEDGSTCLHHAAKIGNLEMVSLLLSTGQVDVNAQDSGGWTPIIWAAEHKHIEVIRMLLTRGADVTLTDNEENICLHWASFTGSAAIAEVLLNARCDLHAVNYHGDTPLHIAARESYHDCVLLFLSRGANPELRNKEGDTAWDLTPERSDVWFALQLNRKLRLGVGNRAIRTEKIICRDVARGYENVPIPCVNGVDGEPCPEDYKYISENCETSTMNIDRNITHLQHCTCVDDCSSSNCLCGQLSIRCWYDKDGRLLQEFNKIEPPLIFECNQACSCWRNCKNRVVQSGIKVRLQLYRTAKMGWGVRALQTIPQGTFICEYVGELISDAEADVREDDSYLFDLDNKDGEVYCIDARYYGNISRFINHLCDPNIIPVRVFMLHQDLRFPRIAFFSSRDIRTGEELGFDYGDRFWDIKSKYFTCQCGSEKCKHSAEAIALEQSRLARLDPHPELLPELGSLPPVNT

[2] = Parallel artificial membrane permeability assay; type: in vitro ADME; conditions: PAMPA, pH 7.4
[3] = system: other lysine and arginine methyltransferases; conditions: up to a 10 μM concentration; cited from earlier work
in vitro = conditions: PAMPA, pH 7.4
human recombinant KDM4A = biological target: T2, human recombinant KDM4A (Homo sapiens, UniProt O75164); test: KDM4A/JMJD2A inhibition, AlphaLISA assay; type: biochemical; conditions: tested at 10 and 25 μM
T2 sequence (O75164 1-1064): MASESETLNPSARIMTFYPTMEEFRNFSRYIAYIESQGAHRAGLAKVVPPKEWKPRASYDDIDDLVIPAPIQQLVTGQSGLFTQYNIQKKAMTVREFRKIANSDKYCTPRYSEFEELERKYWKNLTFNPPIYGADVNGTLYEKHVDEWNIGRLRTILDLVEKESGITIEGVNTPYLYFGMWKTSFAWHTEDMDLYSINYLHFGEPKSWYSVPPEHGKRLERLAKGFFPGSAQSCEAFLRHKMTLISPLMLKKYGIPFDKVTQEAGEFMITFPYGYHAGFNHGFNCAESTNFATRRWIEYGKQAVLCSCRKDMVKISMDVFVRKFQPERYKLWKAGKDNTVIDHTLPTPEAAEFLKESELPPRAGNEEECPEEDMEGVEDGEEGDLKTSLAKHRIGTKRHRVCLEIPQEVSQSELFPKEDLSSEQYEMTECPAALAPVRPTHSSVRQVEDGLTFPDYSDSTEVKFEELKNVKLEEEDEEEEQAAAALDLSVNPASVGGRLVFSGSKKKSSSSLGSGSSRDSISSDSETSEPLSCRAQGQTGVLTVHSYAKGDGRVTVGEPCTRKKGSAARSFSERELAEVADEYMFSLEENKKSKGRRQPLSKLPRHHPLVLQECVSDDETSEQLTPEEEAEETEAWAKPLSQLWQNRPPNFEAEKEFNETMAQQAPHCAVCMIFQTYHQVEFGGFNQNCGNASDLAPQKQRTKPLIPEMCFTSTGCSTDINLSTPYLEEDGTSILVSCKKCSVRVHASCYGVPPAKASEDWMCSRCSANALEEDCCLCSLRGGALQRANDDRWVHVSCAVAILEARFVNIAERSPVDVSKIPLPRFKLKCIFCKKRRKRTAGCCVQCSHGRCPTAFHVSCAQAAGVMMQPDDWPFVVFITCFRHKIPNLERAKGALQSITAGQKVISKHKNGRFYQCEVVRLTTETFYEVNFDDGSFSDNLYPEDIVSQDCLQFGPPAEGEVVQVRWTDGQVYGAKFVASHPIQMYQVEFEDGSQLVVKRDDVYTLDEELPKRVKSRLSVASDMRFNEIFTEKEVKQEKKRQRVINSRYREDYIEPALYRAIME

human recombinant PRMT1 = human recombinant PRMT1 (Homo sapiens, UniProt Q99873); test: PRMT1 inhibition, AlphaLISA assay; type: biochemical; conditions: tested at 10 and 25 μM
human recombinant PRMT3 = human recombinant PRMT3 (Homo sapiens, UniProt O60678); test: PRMT3 inhibition, AlphaLISA assay; type: biochemical; conditions: tested at 10 and 25 μM
human recombinant p300 = human recombinant p300 (Homo sapiens, UniProt Q09472); test: KAT3B/p300 inhibition, AlphaLISA assay; type: biochemical; conditions: tested at 10 and 25 μM
human DNMT3a = human DNMT3a (Homo sapiens, UniProt Q9Y6K1); test: HotSpot DNMT activity assay; type: biochemical; conditions: lambda DNA substrate
[4] = biological target: full-length human recombinant DNMT3b (Homo sapiens, UniProt Q9UBC3); test: HotSpot DNMT activity assay; type: biochemical; conditions: lambda DNA substrate
G9a [5] = biological target: T3, G9a (Homo sapiens, UniProt Q96KQ7); test: Surface plasmon resonance; type: binding
T3 sequence (Q96KQ7 913-1193 limits assumed): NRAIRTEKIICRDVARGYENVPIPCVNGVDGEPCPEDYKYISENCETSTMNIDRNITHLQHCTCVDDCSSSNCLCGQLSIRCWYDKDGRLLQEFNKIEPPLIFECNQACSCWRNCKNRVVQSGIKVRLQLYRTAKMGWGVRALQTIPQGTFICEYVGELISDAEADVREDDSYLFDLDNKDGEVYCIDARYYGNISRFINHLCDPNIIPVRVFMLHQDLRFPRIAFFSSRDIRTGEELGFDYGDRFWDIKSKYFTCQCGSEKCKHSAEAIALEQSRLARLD

human recombinant G9a [6] = biological target: T1, human recombinant G9a; test: Mechanism of action kinetics, AlphaLISA G9a assay, Lineweaver-Burk plots; type: biochemical; conditions: fixed H3 peptide 100 nM, varying SAM
[7] = Chemical stability in PBS, HPLC analysis; type: physicochemical; conditions: exposure to PBS over 72 h
MCF-7 cells = test: MTT cell viability assay, MCF-7; type: cell-based, human; conditions: 0.05–50 μM; 24, 48, 72 h
MDA-MB-231 cells = test: MTT cell viability assay, MDA-MB-231; type: cell-based, human; conditions: up to 5 μM, even after 72 h, vs vehicle
U-343 cells = test: MTT cell viability assay, U-343; type: cell-based, human; conditions: up to 5 μM, even after 72 h, vs vehicle
[8] = system: H3K9me2 levels in MCF-7 cells; test: Western blot of H3K9me2 in histone extracts, MCF-7; type: cell-based, human; conditions: 0.5 and 5 μM, 48 and 72 h
[9] = system: H3K9me2 levels in MDA-MB-231 cells; test: Western blot of H3K9me2 in histone extracts, MDA-MB-231; type: cell-based, human; conditions: 0.5 and 5 μM, 48 and 72 h
[10] = system: H3K9me2 levels in U-343 cells; test: Western blot of H3K9me2 in histone extracts, U-343; type: cell-based, human; conditions: 0.5 and 5 μM, 48 and 72 h
G9a [11] = biological target: T3, G9a; conditions: read-out: Morrison Ki, G9a; cited from earlier work
G9a [12] = biological target: T3, G9a; conditions: read-out: G9a IC50 (ECSD assay); ECSD assays; cited from earlier work
GLP over G9a = conditions: biochemical assays; cited from earlier work
[13] = system: lysine N-methyltransferase SUV39H1(H320R); conditions: up to a 10 μM concentration; cited from earlier work
[14] = system: protein arginine methyltransferase 1 (PRMT1); conditions: up to a 10 μM concentration; cited from earlier work

Sequence of human recombinant p300 (Q09472 whole entry): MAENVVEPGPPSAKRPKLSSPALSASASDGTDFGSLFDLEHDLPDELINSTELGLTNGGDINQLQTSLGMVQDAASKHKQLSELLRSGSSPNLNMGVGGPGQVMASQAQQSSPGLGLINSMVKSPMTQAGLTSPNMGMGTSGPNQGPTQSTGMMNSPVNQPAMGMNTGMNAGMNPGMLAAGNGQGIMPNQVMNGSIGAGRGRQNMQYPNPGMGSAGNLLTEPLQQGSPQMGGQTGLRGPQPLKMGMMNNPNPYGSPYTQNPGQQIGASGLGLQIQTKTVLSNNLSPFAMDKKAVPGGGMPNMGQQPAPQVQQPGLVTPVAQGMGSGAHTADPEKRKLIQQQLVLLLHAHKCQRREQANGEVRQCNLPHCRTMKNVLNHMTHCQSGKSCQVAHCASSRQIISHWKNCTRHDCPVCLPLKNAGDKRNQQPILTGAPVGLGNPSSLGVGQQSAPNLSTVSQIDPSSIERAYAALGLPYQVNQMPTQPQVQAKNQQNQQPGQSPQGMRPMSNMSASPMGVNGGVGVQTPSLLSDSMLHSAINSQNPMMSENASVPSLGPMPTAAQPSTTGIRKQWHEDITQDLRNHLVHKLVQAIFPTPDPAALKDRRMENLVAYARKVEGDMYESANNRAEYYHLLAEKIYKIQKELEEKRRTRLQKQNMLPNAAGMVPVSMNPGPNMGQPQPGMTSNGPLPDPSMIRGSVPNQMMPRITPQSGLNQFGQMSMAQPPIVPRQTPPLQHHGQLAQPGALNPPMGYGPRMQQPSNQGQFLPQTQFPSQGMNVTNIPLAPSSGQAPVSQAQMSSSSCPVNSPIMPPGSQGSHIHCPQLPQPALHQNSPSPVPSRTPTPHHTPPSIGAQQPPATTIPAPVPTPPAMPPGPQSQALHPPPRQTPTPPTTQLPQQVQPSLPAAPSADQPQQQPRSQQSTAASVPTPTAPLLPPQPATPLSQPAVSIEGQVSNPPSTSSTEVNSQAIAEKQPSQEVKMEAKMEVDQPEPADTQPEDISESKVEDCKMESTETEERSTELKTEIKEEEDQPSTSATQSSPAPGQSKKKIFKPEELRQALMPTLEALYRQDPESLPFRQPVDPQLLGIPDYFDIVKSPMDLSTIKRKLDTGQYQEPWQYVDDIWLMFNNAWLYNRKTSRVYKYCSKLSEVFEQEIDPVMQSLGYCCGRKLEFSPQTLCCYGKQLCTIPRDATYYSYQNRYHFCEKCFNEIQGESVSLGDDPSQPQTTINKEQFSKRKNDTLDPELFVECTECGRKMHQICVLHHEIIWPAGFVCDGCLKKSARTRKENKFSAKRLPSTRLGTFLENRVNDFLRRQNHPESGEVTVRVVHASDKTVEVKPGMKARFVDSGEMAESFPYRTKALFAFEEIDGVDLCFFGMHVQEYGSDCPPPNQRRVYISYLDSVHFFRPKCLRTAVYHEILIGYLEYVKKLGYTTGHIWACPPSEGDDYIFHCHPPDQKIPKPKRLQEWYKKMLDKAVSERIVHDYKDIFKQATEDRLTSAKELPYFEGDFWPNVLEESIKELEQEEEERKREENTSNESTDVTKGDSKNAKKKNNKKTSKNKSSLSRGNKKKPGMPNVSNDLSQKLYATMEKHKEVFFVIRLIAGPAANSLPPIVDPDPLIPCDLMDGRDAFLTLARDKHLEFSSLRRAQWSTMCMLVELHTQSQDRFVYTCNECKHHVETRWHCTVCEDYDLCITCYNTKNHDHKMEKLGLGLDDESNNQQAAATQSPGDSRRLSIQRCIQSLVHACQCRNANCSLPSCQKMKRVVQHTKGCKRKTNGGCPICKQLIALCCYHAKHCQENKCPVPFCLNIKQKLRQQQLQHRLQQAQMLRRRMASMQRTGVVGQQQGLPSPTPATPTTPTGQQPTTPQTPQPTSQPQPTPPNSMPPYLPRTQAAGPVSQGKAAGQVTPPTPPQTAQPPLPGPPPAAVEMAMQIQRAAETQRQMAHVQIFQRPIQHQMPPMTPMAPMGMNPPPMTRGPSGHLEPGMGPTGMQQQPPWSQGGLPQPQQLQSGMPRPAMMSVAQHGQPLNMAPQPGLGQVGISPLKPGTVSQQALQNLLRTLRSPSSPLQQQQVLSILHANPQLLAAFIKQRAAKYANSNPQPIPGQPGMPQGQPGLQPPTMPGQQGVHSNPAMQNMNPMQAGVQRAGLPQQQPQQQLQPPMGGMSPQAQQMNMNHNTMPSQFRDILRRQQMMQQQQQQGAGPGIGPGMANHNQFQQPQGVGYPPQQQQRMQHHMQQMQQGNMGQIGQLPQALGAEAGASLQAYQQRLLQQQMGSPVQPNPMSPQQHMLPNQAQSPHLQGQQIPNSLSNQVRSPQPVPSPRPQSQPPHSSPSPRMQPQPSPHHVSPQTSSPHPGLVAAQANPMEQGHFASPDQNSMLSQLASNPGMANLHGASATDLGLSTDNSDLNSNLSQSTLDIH
Sequence of human recombinant PRMT3 (O60678 whole entry): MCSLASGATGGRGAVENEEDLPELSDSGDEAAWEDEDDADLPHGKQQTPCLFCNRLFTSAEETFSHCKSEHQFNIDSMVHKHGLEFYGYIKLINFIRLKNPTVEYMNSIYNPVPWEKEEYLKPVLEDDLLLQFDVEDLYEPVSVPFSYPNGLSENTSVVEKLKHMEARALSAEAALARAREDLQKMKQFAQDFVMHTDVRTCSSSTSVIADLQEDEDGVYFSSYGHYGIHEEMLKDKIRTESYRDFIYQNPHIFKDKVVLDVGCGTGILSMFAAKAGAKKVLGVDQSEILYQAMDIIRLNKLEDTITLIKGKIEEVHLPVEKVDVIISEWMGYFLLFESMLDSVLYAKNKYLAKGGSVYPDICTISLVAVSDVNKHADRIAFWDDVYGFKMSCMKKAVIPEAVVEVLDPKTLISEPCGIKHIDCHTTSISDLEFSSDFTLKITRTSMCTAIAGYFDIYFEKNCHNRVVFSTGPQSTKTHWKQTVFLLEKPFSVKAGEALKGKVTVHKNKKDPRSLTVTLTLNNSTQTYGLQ
Sequence of human DNMT3a (Q9Y6K1 2-912 limits assumed): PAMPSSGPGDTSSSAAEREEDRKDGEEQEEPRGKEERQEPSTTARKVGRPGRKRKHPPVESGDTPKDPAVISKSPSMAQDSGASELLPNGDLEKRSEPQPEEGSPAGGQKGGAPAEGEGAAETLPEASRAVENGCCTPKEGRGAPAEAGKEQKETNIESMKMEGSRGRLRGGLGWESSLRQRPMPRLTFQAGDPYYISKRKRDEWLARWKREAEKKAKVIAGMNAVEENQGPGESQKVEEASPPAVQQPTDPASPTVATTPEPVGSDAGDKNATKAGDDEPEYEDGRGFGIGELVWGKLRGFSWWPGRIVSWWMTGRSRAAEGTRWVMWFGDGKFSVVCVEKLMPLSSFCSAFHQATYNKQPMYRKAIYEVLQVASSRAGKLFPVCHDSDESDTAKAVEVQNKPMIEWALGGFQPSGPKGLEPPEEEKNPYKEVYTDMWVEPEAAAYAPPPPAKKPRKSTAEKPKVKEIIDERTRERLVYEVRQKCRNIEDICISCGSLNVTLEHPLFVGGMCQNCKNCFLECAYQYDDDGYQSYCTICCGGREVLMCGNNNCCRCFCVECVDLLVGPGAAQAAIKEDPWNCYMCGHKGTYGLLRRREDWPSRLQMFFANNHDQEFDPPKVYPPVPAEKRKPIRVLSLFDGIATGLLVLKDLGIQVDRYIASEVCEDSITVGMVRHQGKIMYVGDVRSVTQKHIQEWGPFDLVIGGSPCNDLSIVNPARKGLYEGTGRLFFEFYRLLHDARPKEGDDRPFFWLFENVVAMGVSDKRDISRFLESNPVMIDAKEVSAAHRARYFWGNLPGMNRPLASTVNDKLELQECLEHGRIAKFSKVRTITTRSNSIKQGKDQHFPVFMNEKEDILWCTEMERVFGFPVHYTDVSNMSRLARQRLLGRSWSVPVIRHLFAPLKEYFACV
Sequence of human recombinant PRMT1 (Q99873 whole entry): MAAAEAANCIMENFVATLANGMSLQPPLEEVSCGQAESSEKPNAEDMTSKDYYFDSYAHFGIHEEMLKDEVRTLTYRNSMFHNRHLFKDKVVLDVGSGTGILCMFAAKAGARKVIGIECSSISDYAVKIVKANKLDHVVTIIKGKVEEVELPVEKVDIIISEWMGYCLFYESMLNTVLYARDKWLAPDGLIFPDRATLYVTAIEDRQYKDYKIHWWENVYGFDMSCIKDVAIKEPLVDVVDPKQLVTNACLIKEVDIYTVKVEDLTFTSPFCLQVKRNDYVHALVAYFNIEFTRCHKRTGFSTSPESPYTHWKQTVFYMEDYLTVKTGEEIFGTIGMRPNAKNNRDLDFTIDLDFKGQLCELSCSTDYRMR

COc1cc2c(cc1OCCCN1CCCC1)NC(c1ccccc1)CN=C2NC1CCN(C(C)C)CC1 (centres unmarked) [13b, N-(1-Isopropylpiperidin-4-yl)-7-methoxy-2-phenyl-8-(3-(pyrrolidin-1-yl)propoxy)-2,3-dihydro-1H-benzo[e][1,4]-diazepin-5-amine]
fold reduction of G9a inhibitory activity compared to 12a (human recombinant G9a [1]): 100 fold

COc1cc2c(NC3CCN(C(C)C)CC3)nc(C3CCCCC3)nc2cc1OCCCN1CCCC1 [compound 7]
Hill slope of the concentration–response inhibition curve of G9a (human recombinant G9a [1]): −1.3
Papp at 24 h, 0.2 mM [2]: 0.049 ×10⁻⁶ cm/s
activity against other lysine and arginine methyltransferases [3]: inactive
Papp at 24 h, 0.2 mM (in vitro): 0.019 ×10⁻⁶ cm/s

COc1cc2c(cc1OCCCN1CCCC1)NC(C1CCCCC1)CN=C2NC1CCN(C(C)C)CC1 (centres unmarked) [13a, 2-Cydohexyl-N-(1-isopropylpiperidin-4-yl)-7-methoxy-8-(3-(pyrrolidin-1-yl)propoxy)-2,3-dihydro-1H-benzo[e][1,4]-diazepin-5-amine]
fold reduction of G9a inhibitory activity compared to 12a (human recombinant G9a [1]): approximately 50 fold

COc1cc2c(cc1OCCCN1CCCC1)N=C(C1CCCCC1)CN=C2NC1CCN(C(C)C)CC1 [12a, 2-Cyclohexyl-N-(1-isopropylpiperidin-4-yl)-7-methoxy-8-(3-(pyrrolidin-1-yl)propoxy)-3H-benzo[e][1,4]diazepin-5-amine]
Hill slope of the concentration–response inhibition curve of G9a (human recombinant G9a [1]): −2.7
JMJD2A inhibition (in words) (human recombinant KDM4A): only poorly (or not at all) inhibited
PRMT1 inhibition (in words) (human recombinant PRMT1): only poorly (or not at all) inhibited
PRMT3 inhibition (in words) (human recombinant PRMT3): only poorly (or not at all) inhibited
p300 inhibition (in words) (human recombinant p300): only poorly (or not at all) inhibited
DNMT3a inhibition (in words) (human DNMT3a): inactive
DNMT3b inhibition (in words) [4]: inactive
Kd (G9a [5]): 63800 ± 950 nM
α Ki, noncompetitive against SAM (human recombinant G9a [6]): 1.1 ± 0.2 nM
chemical stability (HPLC) [7]: did not decompose
cell toxicity (MTT), MCF-7 (MCF-7 cells): slight progressive increase of toxicity after 48 and 72 h
cell toxicity (MTT), MDA-MB-231 (MDA-MB-231 cells): did not significantly reduce the number of metabolically active MDA-MB-231 or U-343 cells
cell toxicity (MTT), U-343 (U-343 cells): did not significantly reduce the number of metabolically active MDA-MB-231 or U-343 cells
dimethylation of lysine H3K9 (H3K9me2), MCF-7 [8]: marked and both concentration- and time-dependent reduction
dimethylation of lysine H3K9 (H3K9me2), MDA-MB-231 [9]: marked and both concentration- and time-dependent reduction
dimethylation of lysine H3K9 (H3K9me2), U-343 [10]: marked and both concentration- and time-dependent reduction

COc1cc2c(cc1OCCCN1CCCC1)N=C(C1CCCCC1)CC(NC1CCN(C(C)C)CC1)=N2 [compound 14, 4-Cyclohexyl-N-(1-isopropylpiperidin-4-yl)-8-methoxy-7-(3-(pyrrolidin-1-yl)propoxy)-3H-benzo[b][1,4]diazepin-2-amine]
fold reduction of G9a inhibitory activity compared to 12a (human recombinant G9a [1]): 130 fold

COc1cc2c(NC3CCN(C)CC3)nc(N3CCCN(C)CC3)nc2cc1OCCOCCN(C)C [compound 5]
Ki (G9a [11]): 0.063 nM
IC50 (G9a [12]): 9 nM

CCCCCCNc1nc(NC2CCN(C)CC2)c2cc(OC)c(OC)cc2n1 [compound 9]
selectivity for GLP over G9a (GLP over G9a): > 140 fold

COc1cc2c(cc1OCCCN1CCCC1)N=C(c1ccccc1)CN=C2NC1CCN(C(C)C)CC1 [12b, N-(1-Isopropylpiperidin-4-yl)-7-methoxy-2-phenyl-8-(3-(pyrrolidin-1-yl)propoxy)-3H-benzo[e][1,4]diazepin-5-amine]
fold reduction of G9a inhibitory activity compared to 12a (human recombinant G9a [1]): approximately 50 fold

COc1cc2nc(N3CCCN(C)CC3)nc(NC3CCN(Cc4ccccc4)CC3)c2cc1OC [compound 3]
activity against SUV39H1(H320R) [13]: basically inactive
activity against PRMT1 [14]: basically inactive
